Molecules are shown by their SMILES. Where only a bound is given, the exact number is not on record here.

One data set deals with T1, 5-HT2C receptor (Homo sapiens, UniProt P28335).
T1 construct: host or cells: U2OS
In words: Human 5-HT2C functional assay (beta-arrestin2 recruitment, U2OS_HTR2C_β-Arrestin cells). Format: cell-based. The following applies: compounds used as acid addition salts; for EC50: U2OS_HTR2C_β-Arrestin cells, 1.5 h incubation, read-out: EC50 5-HT2C (potency in functional assay); for Emax: relative efficacy vs response to 10 µM 5-HT or maximal effect of 5-HT (100%). The procedure:
The functional activity of compounds of formula I was assayed by incubation with U2OS_HTR2C_β-Arrestin cells (DiscoverX, 93-0289C3) to induce beta-arrestin2 recruitment to the 5-HT2C receptor. The agonist-induced recruitment and proximity of the receptor and beta-arrestin2 leads to complementation and formation of active β-galactosidase. The enzyme complementation results in enzyme activity, which is measured following the termination of the agonist incubation using DiscoveRx's detection reagent, which contains a chemiluminescent substrate which produces a high intensity signal. Cells were plated and a medium-change to a 1% serum containing medium was performed 24 h later. The next day, test compounds were added and incubated for 1.5 h before addition of detection reagent.
The response produced was measured and compared with the response produced by 10 [mu]M 5-HT or the maximal effect induced by 5-HT (defined as 100%) to which it was expressed as a percentage response (relative efficacy). Dose response curves were con-structed using Graphpad Prism (Graph Software Inc.) or using in house adapted software using a 4 parameter dose response model with variable slope (fit=(Bottom+(Top−Bottom)/(1+10^((LogEC50−x)*Hill Slope))res=(y−fit)). Results are compiled in the table below.
On the technique in general: Arrestin recruitment assays detect the binding of arrestin to an activated receptor.

A short description of data set [1]: Metabolic stability: unbound intrinsic clearance in liver microsomes. Format: in vitro ADME. The following applies: rat; liver microsomes 0.25 mg protein/mL, 0.5 μM compound, pH 7.4, 37° C.; Cl int unbound=Cl int/fu mic; compounds used as acid addition salts; read-out: Cl int, mic unb. (r) (unbound intrinsic clearance). The procedure: Samples of the tested compounds (0.5 μM) were preincubated together with rat liver microsomes (0.25 mg of microsomal protein/mL) in 0.05 M potassium phosphate buffer of pH 7.4 in microtiter plates at 37° C. for 5 minutes. The reaction was started by adding NADPH (1.0 mM). After 0, 5, 10, 15, 20 and 30 minutes, an aliquot was removed, the reaction was cooled and stopped by adding twice the amount of quench solution consisting of acetonitrile/methanol 1:1, and containing […] carbutamide as internal standard. The samples were frozen until analyzed. The remaining concentration of undegraded test substance was determined by liquid chromatography-tandem mass spectrometry (LC-MS/MS). The half-life (t1/2) was determined from the gradient of the ratio of the signal of (test substance/internal standard)/unit time plot, allowing the calculation of the half-life of the test substance, assuming first order kinetics, from the decrease in the concentration of the compound with time. The microsomal clearance (mClint) was calculated as follows: mClint=((ln(2)/t 1/2)/Microsomal Protein Concentration (mg/ml))*1000, leading to the unit of uL/min/mg. The scaled clearance (mClin_scaled) was calculated as mCLint_scaled=m CLint*(Microsomal Yield (mg/kg BW))/1000000*60, leading to the units L/h/kg. The Microsomal Yield is defined by the specifics of the used microsomes. Calculations were modified from refer-ences: Di, The Society for Biomolecular Screening, 2003, 453-462; Obach, D M D, 1999 vol 27. N 11, 1350-1359.
A suspension of 0.25 mg/ml microsomal protein spiked with 0.5 μM of test compound was pipetted on one side of a HTDialysis device (HTDialysis LLC,37 Ledgewood Drive, Gales Fery Conn. 06335) separated by a membrane with a MWcut off 12-14 K. 50 mM K-Phosphate buffer (pH 7.4) was added on the other side of the well. After incubation at 37° C. for 4 h while shaking at 150 rpm, aliquots of both sides were taken, quenched with MeOH/ACN 1:1 and 0.2 μM of internal standard and frozen until analy-sis by LCMSMS.
Cl int unbound=Cl int/fu mic
The compounds were used in form of their respective acid addition salts.

T1 sequence (P28335 33-458): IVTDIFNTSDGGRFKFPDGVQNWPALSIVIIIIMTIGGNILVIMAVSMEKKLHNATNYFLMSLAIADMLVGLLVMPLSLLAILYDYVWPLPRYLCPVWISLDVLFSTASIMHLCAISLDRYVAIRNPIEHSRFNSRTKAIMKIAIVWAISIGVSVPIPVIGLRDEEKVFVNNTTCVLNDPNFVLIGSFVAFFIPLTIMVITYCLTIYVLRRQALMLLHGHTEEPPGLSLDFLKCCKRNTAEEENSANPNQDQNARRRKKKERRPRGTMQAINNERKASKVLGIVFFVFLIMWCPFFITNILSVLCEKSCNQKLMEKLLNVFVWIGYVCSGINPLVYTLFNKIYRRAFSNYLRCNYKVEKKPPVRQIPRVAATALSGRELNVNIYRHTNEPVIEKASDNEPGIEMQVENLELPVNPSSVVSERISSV
T1 sequence (P32121 whole entry partner): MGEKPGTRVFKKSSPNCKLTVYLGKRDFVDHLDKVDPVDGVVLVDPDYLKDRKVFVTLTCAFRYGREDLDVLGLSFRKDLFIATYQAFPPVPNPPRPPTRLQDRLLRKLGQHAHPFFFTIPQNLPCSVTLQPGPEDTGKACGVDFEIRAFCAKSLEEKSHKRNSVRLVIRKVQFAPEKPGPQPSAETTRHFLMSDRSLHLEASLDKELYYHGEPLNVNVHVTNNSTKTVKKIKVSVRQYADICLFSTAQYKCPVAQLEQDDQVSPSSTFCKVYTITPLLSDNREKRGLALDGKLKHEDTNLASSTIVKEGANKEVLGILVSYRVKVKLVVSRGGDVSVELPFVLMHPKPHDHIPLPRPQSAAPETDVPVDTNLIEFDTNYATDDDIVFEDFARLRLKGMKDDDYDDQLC

The EC50 is the concentration needed to bring the measured effect to its halfway point. Broadly, the Emax is the greatest response seen or fitted, relative to the assay's reference. `COc1cc(OCC2CCC(F)(F)C2)c(F)cc1CNC(=O)[C@@H]1CCCN1` (stereo partly drawn) [Example 31, (2S)—N-[[4-[(3,3-Difluorocyclopentyl)methoxy]-5-fluoro-2-methoxy-phenyl]methyl]-pyrrolidine-2-carboxamide]: at 5-HT2C receptor, the concentration giving a half-maximal response (EC50) lay within 0.005 to 0.015 µM and the Emax was more than 70%. In data set [1], the CLint scaled at 0.5 μM is less than 500 mL/min/kg.

Take `COc1cc(OC2CC(F)(F)C2)c(F)cc1CNC(=O)[C@@H]1CCCN1C` [Example 37, (2S)—N-[[4-(3,3-Difluorocyclobutoxy)-5-fluoro-2-methoxy-phenyl]methyl]-1-methyl-pyrrolidine-2-carboxamide]: on 5-HT2C receptor, the concentration for a half-maximal effect (EC50) was in the range of 0.005 to 0.015 µM and the maximum response (Emax) was more than 70%. Also, the CLint scaled at 0.5 μM in data set [1] is 500 to 1330 mL/min/kg.

`COc1cc(OCC2CC2(F)F)c(F)cc1CNC(=O)[C@@H]1CCCN1` (stereo partly drawn) [Example 26, (2S)—N-[[4-[(2,2-Difluorocyclopropyl)methoxy]-5-fluoro-2-methoxy-phenyl]-methyl]pyrrolidine-2-carboxamide]: at 5-HT2C receptor, the EC50 fell in the range of 0.015 to 0.03 µM and the maximal response (Emax) was more than 70%. For the same molecule, the CLint scaled at 0.5 μM in data set [1] was less than 500 mL/min/kg.

Regarding `COc1cc(OCC(F)(F)C(F)F)c(F)cc1CNC(=O)[C@@H]1CCCN1C` [Example 36, (2S)—N-[[5-Fluoro-2-methoxy-4-(2,2,3,3-tetrafluoropropoxy)phenyl]methyl]-1-methyl-pyrrolidine-2-carboxamide], on 5-HT2C receptor, the 50% effective concentration (EC50) lay in the range of 0.015 to 0.03 µM and the Emax was more than 70%. Further, the CLint scaled at 0.5 μM in data set [1] was 500 to 1330 mL/min/kg.

Turning to `COc1cc(OC(C)C(F)(F)C(F)F)c(F)cc1CNC(=O)[C@@H]1CCCN1` (stereo partly drawn) [Example 22, (2S)—N-[[5-Fluoro-2-methoxy-4-(2,2,3,3-tetrafluoro-1-methyl-propoxy)phenyl]-methyl]pyrrolidine-2-carboxamide], at 5-HT2C receptor, the 50% effective concentration (EC50) lay within 0.005 to 0.015 µM and the Emax is more than 70%. Also, the CLint scaled at 0.5 μM in data set [1] was less than 500 mL/min/kg.

Take `COc1cc(OC2CCCC(C(F)(F)F)C2)c(F)cc1CNC(=O)[C@@H]1CCCN1` (stereo partly drawn) [Example 35, (2S)—N-[[5-Fluoro-2-methoxy-4-[3-(trifluoromethyl)cyclohexoxy]phenyl]methyl]-pyrrolidine-2-carboxamide]: on 5-HT2C receptor, the EC50 was less than 0.005 µM and the maximal effect (Emax) is more than 70%. Further, the CLint scaled at 0.5 μM in data set [1] fell in the range of 500 to 1330 mL/min/kg.

As for `COc1cc(OCc2cncc(F)c2)c(F)cc1CNC(=O)[C@@H]1CCCN1` [Example 9, (2S)—N-[[5-Fluoro-4-[(5-fluoro-3-pyridyl)methoxy]-2-methoxy-phenyl]methyl]-pyrrolidine-2-carboxamide], on 5-HT2C receptor, the EC50 was 0.015 to 0.03 µM and the Emax is more than 70%. Further, the CLint scaled at 0.5 μM in data set [1] was 500 to 1330 mL/min/kg.

Regarding `COc1cc(OCC2CC(F)(F)C2(F)F)c(F)cc1CNC(=O)[C@@H]1CCCN1` (stereo partly drawn) [Example 30, (2S)—N-[[5-Fluoro-2-methoxy-4-[(2,2,3,3-tetrafluorocyclobutyl)methoxy]phenyl]-methyl]pyrrolidine-2-carboxamide], at 5-HT2C receptor, the half-maximal effective concentration (EC50) is less than 0.005 µM and the maximal response (Emax) was more than 70%. Further, the CLint scaled at 0.5 μM in data set [1] is less than 500 mL/min/kg.

As to `COc1cc(OCC2CCC(F)(F)CC2)c(F)cc1CNC(=O)[C@@H]1CCCN1` [Example 32, (2S)—N-[[4-[(4,4-Difluorocyclohexyl)methoxy]-5-fluoro-2-methoxy-phenyl]methyl]-pyrrolidine-2-carboxamide], on 5-HT2C receptor, the concentration giving a half-maximal response (EC50) lay in the range of 0.005 to 0.015 µM and the Emax is more than 70%. In data set [1], the CLint scaled at 0.5 μM was less than 500 mL/min/kg.

On to `COc1cc(OCc2cccc(F)c2)c(F)cc1CNC(=O)[C@@H]1CCCN1` [Example 1, (2S)—N-[[5-Fluoro-4-[(3-fluorophenyl)methoxy]-2-methoxy-phenyl]methyl]-pyrrolidine-2-carboxamide], for which, at 5-HT2C receptor, the EC50 was less than 0.005 µM and the Emax is more than 70%. Also, the CLint scaled at 0.5 μM in data set [1] was in the range of 1330 to 4170 mL/min/kg.

For the molecule `COc1cc(OCC(C)CC(F)(F)F)c(F)cc1CNC(=O)[C@@H]1CCCN1` (stereo partly drawn) [Example 25, (2S)—N-[[5-Fluoro-2-methoxy-4-(4,4,4-trifluoro-2-methyl-butoxy)phenyl]methyl]-pyrrolidine-2-carboxamide], at 5-HT2C receptor, the 50% effective concentration (EC50) is less than 0.005 µM and the Emax was more than 70%. Moreover, in data set [1], the CLint scaled at 0.5 μM is 500 to 1330 mL/min/kg.

As for `COc1cc(O[C@H]2CC[C@@H](F)CC2)c(F)cc1CNC(=O)[C@@H]1CCCN1` [Example 16, (S)—N-(5-Fluoro-4-((cis-4-fluorocyclohexyl)oxy)-2-methoxybenzyl)pyrrolidine-2-carboxamide], on 5-HT2C receptor, the EC50 is 0.015 to 0.03 µM and the Emax is more than 70%. In addition, the CLint scaled at 0.5 μM in data set [1] was less than 500 mL/min/kg.

As to `[2H]C1([2H])NC([2H])(C(=O)NCc2cc(F)c(OC3CCC(C(F)(F)F)CC3)cc2OC)C([2H])([2H])C1([2H])[2H]` (stereo not drawn) [Example 42, 2,3,3,4,4,5,5-Heptadeuterio-N-[[5-fluoro-2-methoxy-4-[4-(trifluoromethyl)cyclohexoxy]phenyl]methyl]pyrrolidine-2-carboxamide], at 5-HT2C receptor, the EC50 is less than 0.005 µM and the Emax was more than 70%. The CLint scaled at 0.5 μM in data set [1] is less than 500 mL/min/kg.

In the case of `COc1cc(O[C@H]2CC[C@H](F)CC2)c(F)cc1CNC(=O)[C@@H]1CCCN1` [Example 17, (S)—N-(5-Fluoro-4-((trans-4-fluorocyclohexyl)oxy)-2-methoxybenzyl)pyrrolidine-2-carboxamide], on 5-HT2C receptor, the EC50 lay in the range of 0.005 to 0.015 µM and the maximum response (Emax) was more than 70%. Moreover, the CLint scaled at 0.5 μM in data set [1] was less than 500 mL/min/kg.

For the molecule `COc1cc(OCc2cccc(F)c2F)c(F)cc1CNC(=O)[C@@H]1CCCN1` [Example 4, (2S)—N-[[4-[(2,3-Difluorophenyl)methoxy]-5-fluoro-2-methoxy-phenyl]methyl]-pyrrolidine-2-carboxamide], on 5-HT2C receptor, the concentration for a half-maximal effect (EC50) lay in the range of 0.005 to 0.015 µM and the maximal effect (Emax) is more than 70%. The CLint scaled at 0.5 μM in data set [1] was in the range of 1330 to 4170 mL/min/kg.

For `COc1cc(OCC2CCC(F)(F)C2)c(F)cc1CNC(=O)[C@@H]1CCCN1C` (stereo partly drawn) [Example 38, (2S)—N-[[4-[(3,3-Difluorocyclopentyl)methoxy]-5-fluoro-2-methoxy-phenyl]methyl]-1-methyl-pyrrolidine-2-carboxamide], at 5-HT2C receptor, the EC50 lay within 0.015 to 0.03 µM and the Emax was more than 70%. The CLint scaled at 0.5 μM in data set [1] was in the range of 1330 to 4170 mL/min/kg.

For `COc1cc(OCCCC(F)(F)F)c(F)cc1CNC(=O)[C@@H]1CCCN1` [Example 23, (2S)—N-[[5-Fluoro-2-methoxy-4-(4,4,4-trifluorobutoxy)phenyl]methyl]pyrrolidine-2-carboxamide], at 5-HT2C receptor, the EC50 was less than 0.005 µM and the Emax is more than 70%. Further, the CLint scaled at 0.5 μM in data set [1] was less than 500 mL/min/kg.

`COc1cc(OCc2ccc(F)cc2)c(F)cc1CNC(=O)[C@@H]1CCCN1` [Example 3, (2S)—N-[[5-Fluoro-4-[(4-fluorophenyl)methoxy]-2-methoxy-phenyl]methyl]-pyrrolidine-2-carboxamide]: at 5-HT2C receptor, the EC50 is less than 0.005 µM and the Emax was more than 70%. Also, the CLint scaled at 0.5 μM in data set [1] is 1330 to 4170 mL/min/kg.

On to `COc1cc(OCC2(C(F)(F)F)CC2)c(F)cc1CNC(=O)[C@@H]1CCCN1` [Example 27, (2S)—N-[[5-Fluoro-2-methoxy-4-[[1-(trifluoromethyl)cyclopropyl]methoxy]phenyl]-methyl]pyrrolidine-2-carboxamide], for which, at 5-HT2C receptor, the 50% effective concentration (EC50) was in the range of 0.005 to 0.015 µM and the Emax is more than 70%. For the same molecule, the CLint scaled at 0.5 μM in data set [1] fell in the range of 500 to 1330 mL/min/kg.
